Literature values as cited in patent publication US6518456B1, “Process for the production of 1-(aminomethyl)-cyclohexyl-acetic acid in pure form” (Procos S.p.A., priority 2001, dated 2003).

Conditions: extremely low toxicity; species and route not given

NCC1(CC(=O)O)CCCCC1 [Gabapentin, 1-(aminomethyl)cyclohexyl-acetic acid]
LD50: > 8000 mg/kg
